# Measured values published in patent publication US10800792B2, “Inhibitors of Bruton's tyrosine kinase and method of their use” (JANSSEN PHARMACEUTICA NV, priority 2015, dated 2020).
# Target: unphosphorylated-BTK kinase domain (UP-BTK), GST-tagged human BTK (389-659aa) (Homo sapiens (Human), UniProt Q06187)
# Assay: BTK kinase Lanthascreen binding assay
# Conditions: Lanthascreen tracer competition, 60 minutes incubation, pIC50 = negative log of the IC50 in molar
# Outline: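 A fluorescent tracer is bound to unphosphorylated BTK; test compound is added to compete it off; the Lanthascreen signal is read and IC50 is fitted, then reported as its negative log in molar.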
# Chain of unphosphorylated-BTK kinase domain (UP-BTK), GST-tagged human BTK (389-659aa) (Q06187 389-659): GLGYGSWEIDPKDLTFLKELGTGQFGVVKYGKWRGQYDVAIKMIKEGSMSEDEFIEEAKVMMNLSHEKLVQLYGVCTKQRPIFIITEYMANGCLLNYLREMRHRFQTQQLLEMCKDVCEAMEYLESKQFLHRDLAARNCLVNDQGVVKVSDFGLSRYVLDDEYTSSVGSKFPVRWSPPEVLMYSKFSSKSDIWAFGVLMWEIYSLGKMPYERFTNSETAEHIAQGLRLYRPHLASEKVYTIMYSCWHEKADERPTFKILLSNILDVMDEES
SMILES,BTK_I_binding pIC50,IC50 (read-out: BTK_I_binding pIC50 (converted)) [nM]
"C=CC(=O)N1CC[C@@H](NC(=O)c2sc3nccc4c3c2NC(=O)N4c2cccc(-c3cccc(F)c3F)c2)C1 [Example 673, (R)—N-(1-Acryloylpyrrolidin-3-yl)-5-(2′,3′-difluoro-[1,1′-biphenyl]-3-yl)-4-oxo-4,5-dihydro-3H-1-thia-3,5,8-triazaacenaphthylene-2-carboxamide]",8.2,
"C=CC(=O)N1C[C@@H](O)C[C@@H](NC(=O)c2sc3nccc4c3c2NC(=O)N4c2cccc(-c3cccc(F)c3F)c2)C1 [Example 674, N-((3R,5S)-1-Acryloyl-5-hydroxypiperidin-3-yl)-5-(2′,3′-difluoro-[1,1′-biphenyl]-3-yl)-4-oxo-4,5-dihydro-3H-1-thia-3,5,8-triazaacenaphthylene-2-carboxamide]",8.2,
"C=CC(=O)N1CCC[C@@H](NC(=O)c2sc3nccc4c3c2NC(=O)N4c2ccnc(C3CCCCC3)c2)C1 [Example 677, (R)—N-(1-Acryloylpiperidin-3-yl)-5-(2-cyclohexylpyridin-4-yl)-4-oxo-4,5-dihydro-3H-1-thia-3,5,8-triazaacenaphthylene-2-carboxamide]",7.3,
"C=CC(=O)N1CCC[C@@H](NC(=O)c2sc3nccc4c3c2NC(=O)N4c2cnnc(-c3ccccc3)c2)C1 [Example 678, (R)—N-(1-Acryloylpiperidin-3-yl)-4-oxo-5-(6-phenylpyridazin-4-yl)-4,5-dihydro-3H-1-thia-3,5,8-triazaacenaphthylene-2-carboxamide]",7.3,
"C=CC(=O)N1C[C@H](NC(=O)c2sc3nccc4c3c2NC(=O)N4c2cccc(-c3cccc(F)c3F)c2)C[C@H](OC)C1 [Example 679, N-((3R,5S)-1-Acryloyl-5-methoxypiperidin-3-yl)-5-(2′3′-difluoro-[1,1′-biphenyl]-3-yl)-4-oxo-4,5-dihydro-3H-1-thia-3,5,8-triazaacenaphthylene-2-carboxamide]",7.8,
"C=CC(=O)N1CC[C@@H](NC(=O)c2sc3nccc4c3c2NC(=O)N4c2ccc(Oc3ccccc3)nc2)C1 [Example 680, (R)—N-(1-Acryloylpyrrolidin-3-yl)-4-oxo-5-(6-phenoxypyridin-3-yl)-4,5-dihydro-3H-1-thia-3,5,8-triazaacenaphthylene-2-carboxamide]",7.3,
"CC(=O)N1CCC[C@H]1/C=C(\C#N)C(=O)N1CCC[C@@H](NC(=O)c2sc3nccc4c3c2NC(=O)N4c2ccc(Oc3ccccc3)cc2C)C1 [Example 681, N—((R)-1-((*E)-3-((S)-1-Acetylpyrrolidin-2-yl)-2-cyanoacryloyl)piperidin-3-yl)-5-(2-methyl-4-phenoxyphenyl)-4-oxo-4,5-dihydro-3H-1-thia-3,5,8-triazaacenaphthylene-2-carboxamide]",7.7,
"C=CC(=O)N1CCC[C@@H](NC(=O)c2sc3nccc4c3c2NC(=O)N4c2ccc(OC3CCC3)nc2)C1 [Example 687, (R)—N-(1-Acryloylpiperidin-3-yl)-5-(6-cyclobutoxypyridin-3-yl)-4-oxo-4,5-dihydro-3H-1-thia-3,5,8-triazaacenaphthylene-2-carboxamide]",7.5,
"C=CC(=O)N1CC[C@@H](NC(=O)c2sc3nccc4c3c2NC(=O)N4c2ccc(Oc3ccccc3)cn2)C1 [Example 698, (R)—N-(1-Acryloylpyrrolidin-3-yl)-4-oxo-5-(5-phenoxypyridin-2-yl)-4,5-dihydro-3H-1-thia-3,5,8-triazaacenaphthylene-2-carboxamide]",,31.6
"C=CC(=O)N1CCC[C@@H](NC(=O)c2sc3nccc4c3c2NC(=O)N4c2ccc(OC3CCC3)nc2C)C1 [Example 704, (R)—N-(1-Acryloylpiperidin-3-yl)-5-(6-cyclobutoxy-2-methylpyridin-3-yl)-4-oxo-4,5-dihydro-3H-1-thia-3,5,8-triazaacenaphthylene-2-carboxamide]",6.6,

# Now from value to compound, other results behind:
BTK_I_binding pIC50,SMILES,IC50 (read-out: BTK_I_binding pIC50 (converted)) [nM]
7.7,"CC(=O)N1CCC[C@@H]1/C=C(\C#N)C(=O)N1CCC[C@@H](NC(=O)c2sc3nccc4c3c2NC(=O)N4c2ccc(Oc3ccccc3)cc2C)C1 [Example 683, N—((R)-1-((E)-3-((R)-1-Acetylpyrrolidin-2-yl)-2-cyanoacryloyl)piperidin-3-.l)-5-(2-methyl-4-phenoxyphenyl)-4-oxo-4,5-dihydro-3H-1-thia-3,5,8-triazaacenaphthylene-2-carboxamide]",
8.1,"C=CC(=O)N1CCC[C@@H](NC(=O)c2sc3nccc4c3c2NC(=O)N4c2cc(-c3ccccc3)ncn2)C1 [Example 685, (R)—N-(1-Acryloylpiperidin-3-yl)-4-oxo-5-(6-phenylpyrimidin-4-yl)-4,5-dihydro-3H-1-thia-3,5,8-triazaacenaphthylene-2-carboxamide]",
7.6,"C=CC(=O)N1CCC[C@@H](NC(=O)c2sc3nccc4c3c2NC(=O)N4c2ccc(Oc3ccccc3)c(Cl)c2)C1 [Example 686, (R)—N-(1-Acryloylpiperidin-3-yl)-5-(3-chloro-4-phenoxyphenyl)-4-oxo-4,5-dihydro-3H-1-thia-3,5,8-triazaacenaphthylene-2-carboxamide]",
7.5,"C=CC(=O)N1CCC[C@@H](NC(=O)c2sc3nccc4c3c2NC(=O)N4c2cc(-c3ccccc3)ccc2C)C1 [Example 688, (R)—N-(1-Acryloylpiperidin-3-yl)-5-(4-methyl-[1,1′-biphenyl]-3-yl)-4-oxo-4,5-dihydro-3H-1-thia-3,5,8-triazaacenaphthylene-2-carboxamide]",
7.6,"C=CC(=O)N1CCC[C@@H](NC(=O)c2sc3nccc4c3c2NC(=O)N4c2cccc(CC(C)C)c2)C1 [Example 689, (R)—N-(1-Acryloylpiperidin-3-yl)-5-(3-isobutylphenyl)-4-oxo-4,5-dihydro-3H-1-thia-3,5,8-triazaacenaphthylene-2-carboxamide]",
8.0,"C=CC(=O)N1CCC[C@@H](NC(=O)c2sc3nccc4c3c2NC(=O)N4c2ccnc(C3CCCC3)c2)C1 [Example 692, (R)—N-(1-Acryloylpiperidin-3-yl)-5-(2-cyclopentylpyridin-4-yl)-4-oxo-4,5-dihydro-3H-1-thia-3,5,8-triazaacenaphthylene-2-carboxamide]",
7.9,"C=CC(=O)N1CCC[C@@H](NC(=O)c2sc3nccc4c3c2NC(=O)N4c2ccc(OC3CCCC3)cc2C)C1 [Example 693, (R)—N-(1-Acryloylpiperidin-3-yl)-5-(4-(cyclopentyloxy)-2-methylphenyl)-4-oxo-4,5-dihydro-3H-1-thia-3,5,8-triazaacenaphthylene-2-carboxamide]",
7.1,"C=CC(=O)N1CCC[C@@H](NC(=O)c2sc3nccc4c3c2NC(=O)N4c2ccc(OC)cc2C)C1 [Example 694, (R)—N-(1-Acryloylpiperidin-3-yl)-5-(4-methoxy-2-methylphenyl)-4-oxo-4,5-dihydro-3H-1-thia-3,5,8-triazaacenaphthylene-2-carboxamide]",
7.3,"C=CC(=O)N1CCC[C@@H](NC(=O)c2sc3nccc4c3c2NC(=O)N4c2cc(-c3ccccc3)ncc2C)C1 [Example 695, (R)—N-(1-Acryloylpiperidin-3-yl)-5-(5-methyl-2-phenylpyridin-4-yl)-4-oxo-4,5-dihydro-3H-1-thia-3,5,8-triazaacenaphthylene-2-carboxamide]",
6.9,"C=CC(=O)N1CCC[C@@H](NC(=O)c2sc3nccc4c3c2NC(=O)N4c2ccc(OCCOC(C)C)cc2C)C1 [Example 696, (R)—N-(1-Acryloylpiperidin-3-yl)-5-(4-(2-isopropoxyethoxy)-2-methylphenyl)-4-oxo-4,5-dihydro-3H-1-thia-3,5,8-triazaacenaphthylene-2-carboxamide]",
6.9,"C=CC(=O)N1CCC[C@@H](NC(=O)c2sc3nccc4c3c2NC(=O)N4c2ccnc(C(C)C)c2)C1 [Example 697, (R)—N-(1-Acryloylpiperidin-3-yl)-5-(2-isopropylpyridin-4-yl)-4-oxo-4,5-dihydro-3H-1-thia-3,5,8-triazaacenaphthylene-2-carboxamide]",
7.2,"C=CC(=O)N1CC[C@@H](NC(=O)c2sc3nccc4c3c2NC(=O)N4c2cnc(Oc3ccccc3)cn2)C1 [Example 699, (R)—N-(1-Acryloylpyrrolidin-3-yl)-4-oxo-5-(5-phenoxypyrazin-2-yl)-4,5-dihydro-3H-1-thia-3,5,8-triazaacenaphthylene-2-carboxamide]",
7.2,"C=CC(=O)N1CCC[C@@H](NC(=O)c2sc3nccc4c3c2NC(=O)N4c2ccnc(-c3cccnc3)c2)C1 [Example 701, (R)-5-([2,3′-Bipyridin]-4-yl)-N-(1-acryloylpiperidin-3-yl)-4-oxo-4,5-dihydro-3H-1-thia-3,5,8-triazaacenaphthylene-2-carboxamide]",
7.8,"CN(C)C/C=C/C(=O)N1CC[C@@H](NC(=O)c2sc3nccc4c3c2NC(=O)N4c2ccc(Oc3ccccc3)c(Cl)c2)C1 [Example 703, (R,E)-5-(3-Chloro-4-phenoxyphenyl)-N-(1-(4-(dimethylamino)but-2-enoyl)pyrrolidin-3-yl)-4-oxo-4,5-dihydro-3H-1-thia-3,5,8-triazaacenaphthylene-2-carboxamide]",
6.7,"C=CC(=O)N1CC[C@@H](NC(=O)c2sc3nccc4c3c2NC(=O)N4c2cccc(C(C)C)c2)C1 [Example 705, (R)—N-(1-Acryloylpyrrolidin-3-yl)-5-(3-isopropylphenyl)-4-oxo-4,5-dihydro-3H-1-thia-3,5,8-triazaacenaphthylene-2-carboxamide]",
7.7,"O=C(N[C@@H]1CCCNC1)c1sc2nccc3c2c1NC(=O)N3c1cccc(-c2cccc(F)c2F)c1 [Example 706, (R)-5-(2′,3′-Difluoro-[1,1′-biphenyl]-3-yl)-4-oxo-N-(piperidin-3-yl)-4,5-dihydro-3H-1-thia-3,5,8-triazaacenaphthylene-2-carboxamide]",
